Experimental data from US20130281409A1, “Myelin Sheath Fatty Acids that Resolve Neuroinflammation” (priority 2012, published 2013).
Entries after “also recorded” stand apart in the source; their conditions may differ.

Experiments:
[1] = test system: EAE in PLP139-151-immunized SJL/J mice; assay: EAE, lipid or palmitic-acid treatment of established disease; assay type: in vivo, mouse
Protocol: Animal experiments were approved by, and performed in compliance with, the National Institute of Health guidelines of the Institutional Animal Care and Use Committee at Stanford University. For induction of EAE, 8- to 12-week-old female SJL/J mice (Jackson Laboratory) were immunized subcutaneously with 100 μg of PLP139-151 emulsified in CFA (Difco Laboratories). Lipid and palmitic-acid treatment: Administration of lipid, palmitic acid, or vehicle was initiated once the PLP139-151-immunized mice developed paralysis (representing clinical EAE) and repeated every other day, for a total of ten separate injections. 100 μg of POPS, PGPC, azPC ester, azPC, palmitic acid, or vehicle (0.05% Tween-20 in PBS) was administered in 0.2 ml intravenously in the tail. EAE treatment with lipid: 100 μg of PGPC or sphingomyelin or vehicle ([…] Tween-20 in PBS) was administered in 0.2 ml intravenously in the tail. Treatment with lipid or vehicle was initiated once the PLP139-151-immunized mice developed paralysis (representing clinical EAE) and repeated 3, 6, 12, and 18 days later, for a total of five separate injections.

[2] = test system: naive MBPAc1-11-TCR transgenic splenocytes; assay: MBPAc1-11-induced cytokine production by MBPAc1-11-TCR transgenic splenocytes; assay type: cell-based, mouse; details: 30 μg/ml lipid; for MBPAc1-11-induced IFN-γ production / MBPAc1-11-induced IL-6 production / MBPAc1-11-induced TNF production: 2 μg/ml MBPAc1-11, 48 hours
Protocol: Splenocytes were harvested from mice transgenic for the MBPAc1-11-specific T-cell receptor and stimulated with 2 μg/ml of MBPAc1-11 in the presence of 30 μg/ml of lipid. Lymph nodes and spleens were also harvested from naive C57BL/6 mice, and CD3^+ T-cell enrichment columns (R&D systems) were used to isolate CD3^+ T cells. […] Cytokine assays were performed on culture supernatants after 24 (IL-12p40) or 48 hours (IFN-γ, IL-6, and TNF) of culture by using the BD OptEIA™ Mouse ELISA kits (BD Biosciences).

[3] = test system: MBPAc1-11-TCR transgenic splenocytes; assay: MBPAc1-11-specific T-cell proliferation (3H-thymidine incorporation); assay type: cell-based, mouse; details: 30 μg/ml lipid, 2 μg/ml MBPAc1-11
Protocol: Splenocytes were harvested from mice transgenic for the MBPAc1-11-specific T-cell receptor and stimulated with 2 μg/ml of MBPAc1-11 in the presence of 30 μg/ml of lipid. Lymph nodes and spleens were also harvested from naive C57BL/6 mice, and CD3^+ T-cell enrichment columns (R&D systems) were used to isolate CD3^+ T cells. The purified CD3^+ T cells were stimulated with 5 μg/ml of plate-bound anti-CD3 antibodies and anti-CD28 antibodies in the presence of 30 μg/ml of POPS, PGPC, azPC ester, brain sulfatides, or azPC, 0.25 mM palmitic acid, or 100% ethanol (as the vehicle control). For assessment of proliferation, 1 μCi of ^3H-thymidine was added to each well for the final 18-24 hours of culture, and incorporation of radioactivity was measured by using a Betaplate scintillation counter. Cytokine assays were performed on culture supernatants after 24 (IL-12p40) or 48 hours (IFN-γ, IL-6, and TNF) of culture by using the BD OptEIA™ Mouse ELISA kits (BD Biosciences).
5×10^6 cells/ml were stimulated in vitro with 2 μg/ml of MBPAc1-11 in the presence of various concentrations of palmitic acid (Sigma), other lipids, or 100% Ethanol (vehicle alone).
For assessment of proliferation, 1 μCi of ^3H-thymidine was added to each well for the final 18 hours of culture, and incorporation of radioactivity was quantified using a Betaplate scintillation counter.

[4] = test system: splenocytes from PLP139-151-immunized SJL mice; assay: PLP139-151-induced proliferation of splenocytes of PLP139-151-immunized mice; assay type: cell-based, mouse; details: 30 μg/ml lipid, 48 hours
Protocol: PLP-stimulated cells from PLP139-151-immunized mice administered PGPC prophylactically: SJL/J mice were co-injected with PGPC and PLP139-151 in CFA and sacrificed 48 days later. Lymph node cells and splenocytes were then harvested and re-stimulated in vitro (2.5×10^6 cells/ml) with 10 μg/ml of PLP139-151 or with media alone. PLP-stimulated cells from untreated PLP139-151-immunized mice: SJL/J mice were immunized with PLP139-151 in CFA and sacrificed 10 days later. Splenocytes were then harvested and re-stimulated in vitro (at 5×10^5 cells/ml) with 10 μg/ml of PLP139-151 in the presence of 30 μg/ml of POPS, PGPC, azPC ester, or azPC.

[5] = test system: RAW 264.7 cells; assay: Proliferation of LPS-stimulated RAW 264.7 macrophage cells; assay type: cell-based, mouse; details: 30 μg/ml lipid, 100 ng/ml LPS, 48 hours
Protocol: LPS-stimulated RAW 264.7 mouse macrophage cells: 1×10^5 cells/ml of RAW 264.7 cells were stimulated with 100 ng/ml of lipopolysaccharide (LPS) in the presence of 30 μg/ml of POPS, PGPC, azPC ester, or azPC.

[6] = test system: RAW 264.7 cells; assay: Apoptosis of LPS-stimulated RAW 264.7 macrophage cells; assay type: cell-based, mouse; details: 30 μg/ml lipid, 100 ng/ml LPS, 48 hours
Protocol: LPS-stimulated RAW 264.7 mouse macrophage cells: 1×10^5 cells/ml of RAW 264.7 cells were stimulated with 100 ng/ml of lipopolysaccharide (LPS) in the presence of 30 μg/ml of POPS, PGPC, azPC ester, or azPC. Cells were stained according to standard protocols, run on a FACScan flow cytometer (BD Biosciences), and analysed with CellQuest software (BD Immunocytometry Systems) or with FlowJo software version 6.3.2 (Tree Star, Inc.).

[7] = test system: NF-κB and ERK pathways, Bcl-2 family proteins; assay: Immunoblot of inflammatory, survival and apoptotic signaling in anti-CD3/anti-CD28-stimulated T cells; assay type: cell-based, mouse; details: 30 μg/ml lipid, 15 min or 24 h
Protocol: CD3^+ T cells were isolated from the lymph nodes of naïve C57BL/6 mice by using CD3^+ T-cell enrichment columns (R&D systems). […] Cells were washed with ice-cold PBS and lysed in RIPA lysis buffer containing 1X Halt protease and phosphatase inhibitor cocktail (Pierce) with a Dounce homogenizer. Immunoblotting was performed with antibodies against phospho-Bim ([…]), phospho-Bad ([…]), phospho-Bcl-2 ([…]), phospho-IKKα/β (serines 180/181), phospho-p65 ([…]), phospho-ERK1/2 […]), and IκBα from Cell Signaling Technology.

[8] = 100 μg i.v. once paralysis developed, every other day, ten injections

**Q.** Which results are given for `CCCCCCCCCCCCCCCC(=O)OC[C@H](COP(=O)([O-])OCC[N+](C)(C)C)OC(=O)CCCCCCCC(=O)O` [azPC, 1-Palmitoyl-2-Azelaoyl-sn-Glycero-3-Phosphocholine]?
**A.** EAE severity, established disease [1, 8]: ameliorate established EAE; MBPAc1-11-induced IFN-γ production [2]: reduced; MBPAc1-11-induced IL-6 production [2]: reduced; MBPAc1-11-induced TNF production [2]: reduced; T-cell proliferation in response to MBPAc1-11 [3]: reduced T-cell proliferation; PLP139-151-induced proliferation of splenocytes [4]: suppress; proliferation of LPS-activated RAW 264.7 cells [5]: suppressed proliferation; also recorded: suppress proliferation; apoptosis of LPS-activated RAW 264.7 cells [6]: increased apoptosis; also recorded: induce apoptosis; CD3/CD28-induced activation of the NF-κB and ERK pathways [7]: suppressed the CD3/CD28-induced activation; CD3/CD28-induced phosphorylation of Bim (serine 69) and Bad (serine 112) [7]: suppressed the CD3/CD28-induced phosphorylation

**Q.** Which results are given for `CCCCCCCCCCCCCCCC(=O)OC[C@H](COP(=O)([O-])OCC[N+](C)(C)C)OC(=O)CCCC(=O)O` [PGPC, 1-Palmitoyl-2-Glutaroyl-sn-Glycero-3-Phosphocholine]?
**A.** EAE severity, established disease ([1]; 100 μg i.v. from disease onset (10 days after immunization), five injections): attenuated EAE that was already established; EAE severity, established disease [1, 8]: ameliorate established EAE; MBPAc1-11-induced cytokine levels (cytokines not specified) ([2]; effects less dramatic than POPS and azPC): reduced levels of some of the cytokines; T-cell proliferation in response to MBPAc1-11 [3]: reduced T-cell proliferation; PLP139-151-induced proliferation of splenocytes [4]: suppress; proliferation of LPS-activated RAW 264.7 cells [5]: suppress proliferation; apoptosis of LPS-activated RAW 264.7 cells [6]: induce apoptosis; CD3/CD28-induced activation of the NF-κB and ERK pathways [7]: suppressed the CD3/CD28-induced activation; CD3/CD28-induced phosphorylation of Bim (serine 69) and Bad (serine 112) [7]: suppressed the CD3/CD28-induced phosphorylation

**Q.** With `CCCCCCCC/C=C\CCCCCCCC(=O)O[C@H](COC(=O)CCCCCCCCCCCCCCC)COP(=O)(O)OC[C@H](N)C(=O)O` [POPS, 1-Palmitoyl-2-Oleoyl-sn-Glycero-3-[Phospho-L-Serine]] as the molecule, how does the “EAE severity, established disease” value [1, 8] read?
**A.** Its value is “ameliorate established EAE”.

**Q.** What about the IL-12p40 production ([2]; 2 μg/ml MBPAc1-11, 24 hours) of the same molecule?
**A.** Its IL-12p40 production is “Neither POPS nor the oxidized phosphatidylcholine derivatives affected production”.

**Q.** And the “MBPAc1-11-induced IFN-γ production” value [2]?
**A.** The value was “did not significantly reduce”.

**Q.** What about the “MBPAc1-11-induced IL-6 production” value [2] of the same molecule?
**A.** The value was “reduced”.

**Q.** And the “MBPAc1-11-induced TNF production” value [2]?
**A.** Its value is “reduced”.

**Q.** And the “T-cell proliferation in response to MBPAc1-11” value [3]?
**A.** The value was “reduced T-cell proliferation”.

**Q.** And the “PLP139-151-induced proliferation of splenocytes” value [4]?
**A.** Its value is “suppress”.

**Q.** And the “proliferation of LPS-activated RAW 264.7 cells” value [5]?
**A.** The value was “suppress proliferation”.

**Q.** What about the “apoptosis of LPS-activated RAW 264.7 cells” value [6] of the same molecule?
**A.** The value was “induce apoptosis”.

**Q.** And the “CD3/CD28-induced activation of the NF-κB and ERK pathways” value [7]?
**A.** Its value is “suppressed the CD3/CD28-induced activation”.

**Q.** And the “CD3/CD28-induced phosphorylation of Bim (serine 69) and Bad (serine 112)” value [7]?
**A.** The value was “suppressed the CD3/CD28-induced phosphorylation”.
